Assay results from US10167262B2, “Herbicidal substituted 3-arylpyrazoles” (FMC CORPORATION, priority 2014, dated 2019).
Like-named read-outs stand apart in the source and are kept apart here.

Key:
Type in all cases: in vivo
[1] = tested on: giant foxtail (Setaria faberii); assay: Test C pre-/postemergence greenhouse test, plant response rating 0-100; conditions: Setaria faberi; for pest or weed control at 62 g/ha: 62 g ai/ha; for pest or weed control at 125 g/ha: 125 g ai/ha; for pest or weed control at 250 g/ha: 250 g ai/ha
In short: (§1)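 Two application timings: preemergence onto seeded loam/sand soil and postemergence onto plants at the 1–4 leaf stage (2–18 cm) in peat/vermiculite medium. Formulation: non-phytotoxic solvent with surfactant. Read-out: visual control rating, 0–100, at 13–15 days after treatment.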

[2] = tested on: velvetleaf (Abutilon theophrasti); assay: as above; conditions: Abutilon theophrasti; for pest or weed control at 62 g/ha: 62 g ai/ha; for pest or weed control at 125 g/ha: 125 g ai/ha; for pest or weed control at 250 g/ha: 250 g ai/ha
In short: as §1

[3] = tested on: winter wheat (Triticum aestivum); assay: as above; conditions: Triticum aestivum; for plant injury at 62 g/ha: 62 g ai/ha; for plant injury at 125 g/ha: 125 g ai/ha; for plant injury at 250 g/ha: 250 g ai/ha
In short: as §1

[4] = tested on: pigweed (Amaranthus retroflexus); assay: as above; conditions: Amaranthus retroflexus; for pest or weed control at 62 g/ha: 62 g ai/ha; for pest or weed control at 250 g/ha: 250 g ai/ha
In short: as §1

corn (Zea mays) = assay: as above; conditions: Zea mays; for Corn plant response rating (crop injury, 0 = no effect, 100 = complete kill) at 250 g/ha: 250 g ai/ha
In short: as §1

[5] = tested on: blackgrass (Alopecurus myosuroides); assay: as above; conditions: Alopecurus myosuroides; for pest or weed control at 62 g/ha: 62 g ai/ha; for pest or weed control at 125 g/ha: 125 g ai/ha; for pest or weed control at 250 g/ha: 250 g ai/ha
In short: as §1

[6] = tested on: johnsongrass (Sorghum halepense); assay: as above; conditions: Sorghum halepense; for pest or weed control at 62 g/ha: 62 g ai/ha; for pest or weed control at 125 g/ha: 125 g ai/ha; for pest or weed control at 250 g/ha: 250 g ai/ha
In short: as §1

soybean (Glycine max) = assay: as above; conditions: Glycine max; for plant injury at 62 g/ha: 62 g ai/ha; for plant injury at 125 g/ha: 125 g ai/ha; for plant injury at 250 g/ha: 250 g ai/ha
In short: as §1

[7] = tested on: morningglory (Ipomoea coccinea); assay: as above; conditions: Ipomoea; for pest or weed control at 62 g/ha: 62 g ai/ha; for pest or weed control at 125 g/ha: 125 g ai/ha; for pest or weed control at 250 g/ha: 250 g ai/ha
In short: as §1

[8] = tested on: lambsquarters (Chenopodium album); assay: as above; conditions: Chenopodium album; for pest or weed control at 62 g/ha: 62 g ai/ha; for pest or weed control at 125 g/ha: 125 g ai/ha; for pest or weed control at 250 g/ha: 250 g ai/ha
In short: as §1

kochia (Kochia scoparia) = assay: Test C postemergence greenhouse test, plant response rating 0-100; conditions: Bassia scoparia, post-emergence
In short: (§2)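 Formulated compounds applied postemergence; plants 1- to 4-leaf stage. Evaluated visually vs. untreated controls after roughly two weeks (13–15 d) under greenhouse conditions; 100 denotes complete control.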

[9] = tested on: chickweed (common chickweed, Stellaria media); assay: as above; conditions: Stellaria media, post-emergence
In short: as §2

wild oat (Avena fatua) = assay: as above; conditions: Avena fatua, post-emergence
In short: as §2

[10] = post-emergence, Postemergence, read-out: Plant response rating (0 to 100), Foxtail, Giant
[11] = post-emergence, Postemergence, scale 0 to 100
[12] = pre-emergence, Preemergence, read-out: Plant response rating, Foxtail, Giant
[13] = pre-emergence, Preemergence, 500 g ai/ha
[14] = post-emergence, Postemergence, read-out: Plant response rating (0 to 100), Velvetleaf
[15] = pre-emergence, Preemergence, read-out: Plant response rating, Velvetleaf
[16] = post-emergence, Postemergence, read-out: Plant response rating (0 to 100), Wheat
[17] = pre-emergence, Preemergence, read-out: Plant response rating, Wheat
[18] = post-emergence, Postemergence, read-out: Plant response rating (0 to 100), Blackgrass
[19] = pre-emergence, Preemergence, read-out: Plant response rating, Blackgrass
[20] = post-emergence, Postemergence, read-out: Plant response rating (0 to 100), Johnsongrass
[21] = pre-emergence, Preemergence, read-out: Plant response rating, Johnsongrass
[22] = post-emergence, Postemergence, read-out: Plant response rating (0 to 100), Soybean
[23] = pre-emergence, Preemergence, read-out: Plant response rating, Soybean
[24] = post-emergence, Postemergence, read-out: Plant response rating (0 to 100), Morningglory
[25] = pre-emergence, Preemergence, read-out: Plant response rating, Morningglory
[26] = post-emergence, Postemergence, read-out: Plant response rating (0 to 100), Lambsquarters
[27] = pre-emergence, Preemergence, read-out: Plant response rating, Lambsquarters

Cn1cc(C(=O)c2ccccc2)c(-c2cc(Cl)cc(Cl)c2)n1 [Compound 54, [3-(3,5-dichlorophenyl)-1-methyl-1H-pyrazol-4-yl]phenylmethanone]
45%: pest or weed control at 62 g/ha [2, 15]
80%: pest or weed control at 62 g/ha [2, 14] | pest or weed control at 500 g/ha [2, 13]
100%: pest or weed control at 250 g/ha [2, 11] | pest or weed control at 125 g/ha ([4]; post-emergence, Postemergence, 125 g ai/ha, read-out: Plant response rating (0 to 100), Pigweed) | pest or weed control at 250 g/ha [4, 11] | pest or weed control at 500 g/ha [8, 13] | pest or weed control at 125 g/ha ([9]; 125 g ai/ha) | pest or weed control at 250 g/ha ([9]; 250 g ai/ha, scale 0 to 100)
0%: pest or weed control at 31 g/ha ([1]; post-emergence, Postemergence, 31 g ai/ha, read-out: Plant response rating (0 to 100), Foxtail, Giant) | pest or weed control at 62 g/ha [1, 10] | pest or weed control at 62 g/ha [1, 12] | pest or weed control at 125 g/ha [1, 12] | pest or weed control at 250 g/ha ([1]; pre-emergence, Preemergence) | pest or weed control at 500 g/ha [1, 13] | plant injury at 62 g/ha [3, 16] | plant injury at 125 g/ha [3, 16] | plant injury at 250 g/ha [3, 11] | plant injury at 62 g/ha [3, 17] | plant injury at 125 g/ha [3, 17] | plant injury at 250 g/ha ([3]; pre-emergence, Preemergence) | plant injury at 500 g/ha [3, 13] | plant injury at 31 g/ha (corn (Zea mays); post-emergence, Postemergence, 31 g ai/ha) | plant injury at 62 g/ha (corn (Zea mays); post-emergence, Postemergence, 62 g ai/ha) | plant injury at 125 g/ha (corn (Zea mays); post-emergence, Postemergence, 125 g ai/ha) | Corn plant response rating (crop injury, 0 = no effect, 100 = complete kill) at 250 g/ha (corn (Zea mays); [11]) | Corn plant response rating (crop injury, 0 = no effect, 100 = complete kill) at 62 g/ha (corn (Zea mays); pre-emergence, Preemergence, 62 g ai/ha) | Corn plant response rating (crop injury, 0 = no effect, 100 = complete kill) at 125 g/ha (corn (Zea mays); pre-emergence, Preemergence, 125 g ai/ha) | pest or weed control at 31 g/ha ([5]; post-emergence, Postemergence, 31 g ai/ha, read-out: Plant response rating (0 to 100), Blackgrass) | pest or weed control at 62 g/ha [5, 18] | pest or weed control at 125 g/ha [5, 18] | pest or weed control at 250 g/ha [5, 11] | pest or weed control at 62 g/ha [5, 19] | pest or weed control at 125 g/ha [5, 19] | pest or weed control at 250 g/ha ([5]; pre-emergence, Preemergence) | pest or weed control at 62 g/ha [6, 20] | pest or weed control at 125 g/ha [6, 20] | pest or weed control at 250 g/ha [6, 11] | pest or weed control at 62 g/ha [6, 21] | pest or weed control at 125 g/ha [6, 21] | pest or weed control at 250 g/ha ([6]; pre-emergence, Preemergence) | pest or weed control at 500 g/ha [6, 13] | plant injury at 62 g/ha (soybean (Glycine max); [22]) | plant injury at 125 g/ha (soybean (Glycine max); [22]) | plant injury at 250 g/ha (soybean (Glycine max); [11]) | plant injury at 62 g/ha (soybean (Glycine max); [23]) | plant injury at 125 g/ha (soybean (Glycine max); [23]) | plant injury at 250 g/ha (soybean (Glycine max); pre-emergence, Preemergence) | plant injury at 500 g/ha (soybean (Glycine max); [13]) | pest or weed control at 62 g/ha [7, 24] | pest or weed control at 125 g/ha [7, 24] | pest or weed control at 250 g/ha [7, 11] | pest or weed control at 62 g/ha [7, 25] | pest or weed control at 125 g/ha [7, 25] | pest or weed control at 31 g/ha ([9]; 31 g ai/ha) | pest or weed control at 62 g/ha (wild oat (Avena fatua); 62 g ai/ha) | pest or weed control at 125 g/ha (wild oat (Avena fatua); 125 g ai/ha) | pest or weed control at 250 g/ha (wild oat (Avena fatua); 250 g ai/ha, scale 0 to 100)
70%: pest or weed control at 250 g/ha (kochia (Kochia scoparia); 250 g ai/ha, scale 0 to 100)
95%: pest or weed control at 250 g/ha ([4]; pre-emergence, Preemergence) | pest or weed control at 500 g/ha [4, 13]
55%: pest or weed control at 125 g/ha [2, 15] | pest or weed control at 125 g/ha [8, 26] | pest or weed control at 250 g/ha [8, 11]
90%: pest or weed control at 62 g/ha ([4]; pre-emergence, Preemergence, read-out: Plant response rating, Pigweed) | pest or weed control at 62 g/ha ([9]; 62 g ai/ha)
15%: pest or weed control at 250 g/ha ([7]; pre-emergence, Preemergence)
50%: pest or weed control at 62 g/ha [8, 26] | pest or weed control at 250 g/ha ([8]; pre-emergence, Preemergence)
40%: pest or weed control at 500 g/ha [7, 13] | pest or weed control at 125 g/ha [8, 27]
60%: pest or weed control at 250 g/ha ([2]; pre-emergence, Preemergence) | pest or weed control at 62 g/ha (kochia (Kochia scoparia); 62 g ai/ha)
65%: pest or weed control at 125 g/ha (kochia (Kochia scoparia); 125 g ai/ha)
5%: pest or weed control at 125 g/ha [1, 10] | pest or weed control at 250 g/ha [1, 11]
30%: pest or weed control at 62 g/ha [8, 27]
10%: Corn plant response rating (crop injury, 0 = no effect, 100 = complete kill) at 250 g/ha (corn (Zea mays); pre-emergence, Preemergence) | Corn plant response rating (crop injury, 0 = no effect, 100 = complete kill) at 500 g/ha (corn (Zea mays); [13])
85%: pest or weed control at 125 g/ha [2, 14]
98%: pest or weed control at 62 g/ha ([4]; post-emergence, Postemergence, read-out: Plant response rating (0 to 100), Pigweed)
